Source: US6555108B1, “Implanting HSV-TK retrovirus producing cells to treat tumors” (priority 1990, dated 2003)
Entries after “also recorded” stand apart in the source; their conditions may differ.

Assays:
C6BAG cells [1] = test: Delayed co-culture, ganciclovir sensitivity of recipient cells; details: C6BAG co-cultured with C6BU1 or C6BWT cells, ratio 1:2 (control)
Description: (§3) Seven days after C6BAG cells recipients were plated, C6BU1, C6BWT, C6VIK, or C6VIKWT cells (donors) were plated with them at a ratio of 1:2. Ganciclovir treatment was begun three days later and continued for 9-12 days. Cells were then stained for beta-galactosidase activity and only positive colonies were counted. Colony numbers are expressed as a percentage of those seen for parallel cultures without ganciclovir. Only survival of beta-galactosidase-positive colonies was scored. Studies were done in triplicate with less than 0.5% variability.
(§4) Donor C6VIK or C6VIKWT cells were then added to the cultures at a ratio of 1:2 (5×10^4 recipient cells:10^5 donor cells). Control cultures consisted of C6BAG or C6BBAG cells alone, or C6BAG or C6BBAG cells co-plated with “donor” C6BU1 or C6BWT cells, after delay, as above. After 10 days ganciclovir was added at varying concentrations (0-300 μM) and cells were incubated for another 9-12 days with the drug. Cells were then fixed with 0.5% glutaraldehyde and stained histochemically for beta-galactosidase activity, as described (Price et al., Proc. Natl. Acad. Sci. USA 84:1141-1145 (1987)), and colonies were counted.

C6BWT cells = test: Ganciclovir sensitivity, cell proliferation assay; details: even at 1000 nM ganciclovir
Description: (§5) Growth inhibition of C6VIK, C6VIKWT, C6BU1, C6BAG, C6BBAG, C6BAGWT and C6BWT cells by ganciclovir when treatment was begun the day after plating. Cell numbers were determined four days after plating. Cell growth is expressed as the percentage of cells with treatment compared to the number of cells without treatment (100%).
(§6) To measure the sensitivity of isolated cells, cells were plated in 24-well plates at a density of 10^4 cells per well. The next day, medium was replaced with medium containing ganciclovir (Cytovene, Burroughs Wellcome) at varying concentrations (0-1 μM) in quadruplicate. Four days later, cells were harvested using trypsin and counted using a cell counter (Coulter Electronics Ltd., Luton, United Kingdom). Cell growth is expressed as the percentage of cells compared to the number of cells without treatment (100%).

C6VIKWT cells [2] = system: C6VIKWT cells
Description: Growth inhibition of C6VIK, C6VIKWT, C6BU1, C6BAG, C6BBAG, C6BAGWT and C6BWT cells by ganciclovir when treatment was begun the day after plating. Cell numbers were determined four days after plating. Cell growth is expressed as the percentage of cells with treatment compared to the number of cells without treatment (100%). Bars indicate standard error of the mean.
as §6

C6BBAG cells [3] = system: C6BBAG cells
Description: This analysis was carried out as in FIG. 5 except C6BBAG, which lack endogenous TK, were used instead of C6BAG.
as §4

C6BAG cells [4] = test: Ganciclovir sensitivity, cell proliferation assay; details: even at 1000 nM ganciclovir
Description: as §5, §6

C6BAG cells [5] = system: C6BAG cells
Description: as §3, §4

C6BAGWT cells = test: Ganciclovir sensitivity, cell proliferation assay; details: even at 1000 nM ganciclovir
Description: as §5, §6

C6VIK cells [6] = test: Ganciclovir sensitivity, cell proliferation assay; details: Rattus norvegicus, 96 h, read-out: Fifty percent inhibition of growth
Description: as §5, §6

C6VIK cells [7] = details: C6VIK subcutaneous tumors, Ezzedine et al. 1991; cited from earlier work
C6BBAG cells [8] = test: Ganciclovir sensitivity, cell proliferation assay; details: even at 1000 nM ganciclovir
Description: as §5, §6

[9] = system: C6 glioma cells and other cells infected with this retrovirus; details: cell culture studies, Moolten et al. 1990; cited from earlier work
C6VIKWT cells [10] = details: colony survival; drug begun seven days after plating, 9-12 days
C6BAG and C6VIKWT cells = test: Growth of combinations of tumor cells in nude mice; type: in vivo
Description: (§1) FIG. 11: Growth of combinations of tumor cells in nude mice. Tumor cells were inoculated simultaneously in different combinations in a ratio of 1 to 10 (recipient (C6BAG) versus donors C6BU1(n=9), C6VIK (n=9) or C6VIKWT, (n=7)). After tumors reached 1 cm in diameter, animals were treated with PBS for 14 days and then maintained without treatment for an additional 4 days. Bars indicate standard error of the mean.
FIG. 12: Growth of combinations of tumor cells in nude mice. […] Bars indicate standard error of the mean.
Sequential injections of 10^5 C6BAG cells followed immediately by 106 C6BU1 cells, C6VIK cells, or C6VIKWT cells at the same injection site, were carried out as above using 20 animals for each combination. […] Tumor volume was assessed as the percentage increase over the volume at the beginning of treatment through 17 days.

C6BAG cells [11] = test: Simultaneous co-culture, ganciclovir sensitivity of recipient cells
Description: Simultaneous co-culture experiment with C6BAG cells as recipients and C6VIK and C6VIKWT cells as donors (1:100). Ganciclovir treatment was begun seven days after plating and continued for 14 days. […] Studies were done in triplicate with less than 0.5% variability.
Studies were done in triplicate with less than 0.5% variability.
For simultaneous co-culture experiments, 103 recipient cells, C6BAG or C6BBAG were plated together with 10^5 C6VIK or C6VIKWT donor cells, in duplicate. […] After seven days ganciclovir was added at varying concentrations (0 to 300 μM) and culture was processed as above. To assess the effects of the ratio of the donor cells to recipient cells, simultaneous co-culture experiments were also done varying the ratio of the donor cell, C6VIKWT, to the recipient cell, C6BAG, from 0.1 to 100.

C6BAGWT and C6BWT lines = test: Ganciclovir sensitivity of colony formation; type: cell-based, rat; details: colony survival
Description: Ganciclovir treatment was begun 7 days after plating these same cell lines to determine the ganciclovir sensitivity of colony formation. Ganciclovir treatment was continued for 9-12 days and then colonies were stained and counted. Survival colonies are expressed as a percentage compared to the number of colonies without treatment (100%). Studies were done in triplicate with less than 0.5% variability.
To measure the ganciclovir sensitivity of colony formation, cells were plated in duplicate at a density of 500 cells per 25 cm^2 culture flask. Seven days later, ganciclovir was added at various concentrations (0, 0.1, 0.5, 1, 10, 50, 100, 300 μM) in quadruplicate and incubation was for 9-12 days, with medium changes every 3-5 days. Cells were then fixed with 100% methanol, and stained with Giemsa (Freshney, R. I., “Culture of Animal Cells,” in: A Manual of Basic Techniques, 2d ed., New York, Alan R. Liss, Inc., pp. 170-171 (1987)), and colonies ≧2 mm in diameter were counted.

C6VIK cells [12] = test: Ganciclovir sensitivity in vivo, subrenal capsule implant; design: species or system rat; details: C6VIK subrenal capsule implants in rats; 20 mg/kg intraperitoneally daily; reassessed over 16-day period; two animals
Description: Parental and infected cells were tested for their dose-dependent sensitivity to ganciclovir in culture and in vivo following inoculation into the rat subrenal capsule.
Ganciclovir Sensitivity in vivo: Nine rats were implanted in the subrenal capsule with C6VIK cells. Four survived the procedure for further study. Tumors were measured 5 days after implantation. Two animals were treated with ganciclovir (20 mg/kg intraperitoneally daily) and two with saline daily. Tumor size was reassessed over a 16-day period.

C6VIK-WT cells [13] = test: Ganciclovir killing in culture (Example 3); type: cell-based; details: Rattus norvegicus, read-out: GCV concentration at which 50% of cells were killed
Text: (§2) Retroviral vectors can be used to transfer genes into the genome of dividing cells. In order to increase the efficiency of gene delivery and killing effect of ganciclovir, we developed a new packaging line (C6VIK-WT) by infecting C6VIK cells with an ecotropic wild-type retrovirus (MoMLV). […] (Clifton, N.J., Humana), pp. 177-219. Because tumor cells can migrate deep into brain parenchyme, they should be able to deliver the vector to tumor cells away from the tumor mass. In culture, 50% of C6VIK-WT cells were killed at 0.024 μM GCV, while it took 7.3 μM GCV to kill 50% of C6VIK cells. […] Presumably C6VIK-WT cells produce both wild-type retrovirus and retrovirus vectors containing the HSV-TK gene (neither of which are produced by C6VIK cells) and death of C6BAG cells might be mediated by retrovirus infection and/or self-generated GCV toxic products.

C6VIK cells [14] = test: Ganciclovir killing in culture (Example 3); type: cell-based; details: Rattus norvegicus, read-out: GCV concentration to kill 50% of cells
Text: as §2

C6BAG cells [15] = test: Co-culture with C6VIK or C6VIK-WT, GCV treatment (Example 3); type: cell-based, rat; details: co-culture with C6VIK-WT versus C6VIK
Text: as §2

[16] = system: C6BU1 (HSV-TK negative) cells; test: Ganciclovir sensitivity, cell proliferation assay; type: cell-based, rat; details: even at 1000 nM ganciclovir
Text: Bars indicate standard error of the mean.

parental C6 cells = details: parental C6 subcutaneous tumors, Ezzedine et al. 1991; cited from earlier work
C6VIK-WT cells [17] = test: Subcutaneous tumors in nude mice, GCV treatment (Example 3); type: in vivo; details: nude mice inoculated subcutaneously with C6VIK-WT cells
Text: as §2

C6VIK-WT and C6BAG cells = test: as above; type: in vivo; details: nude mice inoculated subcutaneously with C6VIK-WT and C6BAG cells simultaneously
Text: as §2

C6BAG and C6VIK cells = test: Growth of combinations of tumor cells in nude mice; type: in vivo; details: 14 day course of ganciclovir, 25 mg/kg twice a day intraperitoneally
Description: as §1
FIG. 12: Growth of combinations of tumor cells in nude mice. The same combinations of cells as in FIG. 11 were treated in parallel with 50 mg/kg/day ganciclovir for 14 days. *=p<0.01. Bars indicate standard error of the mean.
Sequential injections of 10^5 C6BAG cells followed immediately by 106 C6BU1 cells, C6VIK cells, or C6VIKWT cells at the same injection site, were carried out as above using 20 animals for each combination. After the tumors had reached 1 cm in diameter, ganciclovir treatment was begun for 14 days, 25 mg/kg twice a day intraperitoneally in half of each group, with the other half receiving PBS intraperitoneally as a control. Tumor volume was assessed as the percentage increase over the volume at the beginning of treatment through 17 days.

Description for C6VIKWT tumors: The tumor growth rate (%) was calculated in comparison with the initial volume (100% at day 0). Tumors were treated with PBS (solid line) or with 50 mg/kg/day ganciclovir (dotted line). Bars indicate standard error of the mean.
C6VIKWT cells (5×10^5 cells in 200 μl media) were injected subcutaneously into the flanks of female nude mice (NCr/Sed, nu/nu; MGH breeding colony) (Ezzedine, Z. D., et al., New Biol. 3:608-614 (1991)). There were three treatment groups; 25 mg/kg ganciclovir intraperitoneally twice a day for 14 days, n=5; 25 mg/kg ganciclovir intraperitoneally once a day for 14 days, n=4; and 12.5 mg/kg ganciclovir intraperitoneally twice a day for 14 days, n=4. Ganciclovir therapy was begun when tumor size reached 1 cm in diameter as measured by calipers, by intraperitoneal injections up to 25 mg/kg daily for 14 days. […] Tumor volumes were measured biweekly during treatment over a 24 day period, and were expressed as a percentage compared to the volume at the time treatment was begun.

## Nc1nc(O)c2ncn(COC(CO)CO)c2n1 [ganciclovir]
C6BAG cells [1]
  Sensitization of recipient cells: no significant sensitization to ganciclovir was observed
C6BWT cells
  Inhibition of growth: No substantial inhibition of growth
C6VIKWT cells [2]
  IC50: 0.0003 µM
C6BBAG cells [3]
  IC50: 30 µM
C6BAG cells [4]
  Inhibition of growth: No substantial inhibition of growth
C6BAG cells [5]
  IC50: 3 µM
C6VIKWT tumors; 50 mg/kg/day in two injections, 50 mg/kg/day in one injection, 25 mg/kg/day in two injections
  Inhibition kinetics across three ganciclovir regimens: no apparent difference in inhibition kinetics
C6VIKWT tumors; all 13 animals, treatment stopped after 14 days, next two weeks
  Tumor course after treatment stopped: slow regrowth of tumors
C6VIKWT tumors; ganciclovir for 14 days, begun at tumor size 1 cm in diameter
  Tumor growth: inhibited subsequent growth completely; also recorded: completely blocked tumor growth
C6BAGWT cells
  Inhibition of growth: No substantial inhibition of growth
C6VIK cells [6]
  IC50: 0.01 µM
C6VIK cells [7]
  Tumor growth: inhibited tumor growth; also recorded: continued to grow at a slow rate
C6BBAG cells [8]
  Inhibition of growth: No substantial inhibition of growth
[9]
  Ganciclovir concentration killing infected cells relative to uninfected cells (fold less): 100 fold
C6VIKWT cells [10]
  Sensitivity of C6VIKWT relative to parental C6VIK at the level of 50% surviving colonies: 300 fold
C6BAG and C6VIKWT cells; C6BAG:C6VIKWT 1:10, 14 day course of ganciclovir, 25 mg/kg twice a day intraperitoneally, 25 mg/kg
  Tumor size compared to the other cell combinations: even greater decrease; also recorded: markedly reduced rate of tumor growth
C6BAG and C6VIKWT cells; another two weeks of ganciclovir therapy
  Effect of a further ganciclovir course on regrowth: regrowth was not blocked
C6BAG and C6VIKWT cells; day 17, after ganciclovir
  Histologic examination of tumors: extensive necrosis; also recorded: no residual tumor cells seen histologically
C6BAG and C6VIKWT cells; subsequent two-week period
  Tumor course after treatment: slow regrowth
C6BAG cells [11]; 100 μM ganciclovir, ratios of 10 and 100
  Ganciclovir sensitivity of C6BAG cells with increasing numbers of C6VIKWT cells: greater sensitivity
C6BAG cells [11]; simultaneous plating, ratio 1:100
  Sensitization of recipient cells, C6VIKWT versus C6VIK donors: greater sensitization of C6BAG cells to ganciclovir was seen in the presence of C6VIKWT cells
C6BAG cells [11]; simultaneously plated co-cultures
  Ganciclovir sensitivity of C6BAG cells relative to delayed co-cultures: ~10 fold
C6BAGWT and C6BWT lines
  Sensitivity compared with uninfected C6BAG and C6BU1 cells: no significant difference in sensitivity
C6VIK cells [12]
  Tumor size after treatment versus before: smaller after the treatment than before
C6VIK-WT cells [13]
  IC50: 0.024 µM
C6VIK cells [14]
  IC50: 7.3 µM
C6BAG cells [15]
  Killing of C6BAG cells after co-culture and GCV treatment: substantially more C6BAG cells were killed when co-cultured with C6VIK-WT than with C6VIK cells
[16]
  Inhibition of growth: No substantial inhibition of growth
Parental C6 cells
  Tumor growth: had no effect on tumor growth
C6VIK-WT cells [17]
  Tumor regression: caused regression of tumors in most nude mice
C6VIK-WT and C6BAG cells
  Tumor regression: caused regression of tumors in most nude mice
C6BAG and C6VIK cells
  Tumor volume compared to C6BAG and C6BU1 tumors: significant decrease in the tumor volume
